Measurements from patent US9216968B2, “Heterocyclic derivative and pharmaceutical drug” (NIPPON SHINYAKU CO., LTD., priority 2011, dated 2015).
pIC50: −log10 of the molar value. Counter-ions that a name gives are not always drawn.

Key:
human mPGES-1 = human mPGES-1 (Homo sapiens (Human), UniProt O14684); test: mPGES-1 inhibiting activity (microsome fractions, PGE2 by HTRF); type: biochemical; settings: microsomes from CHO-K1 cells transfected with human mPGES-1; PGH2 1 μM, 4° C., 60 seconds; read-out: mPGES-1 Inhibition IC50
human mPGES-1, sequence (O14684 whole entry): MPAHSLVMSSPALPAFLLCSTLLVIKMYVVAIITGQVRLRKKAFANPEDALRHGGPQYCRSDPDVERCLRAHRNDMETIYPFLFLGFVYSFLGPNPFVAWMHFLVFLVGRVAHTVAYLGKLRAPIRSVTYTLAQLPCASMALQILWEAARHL
How it was run: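 PGE2 formation read by HTRF after 60 s at 4 °C with 1 μM PGH2 substrate, following 20 min compound preincubation (1% DMSO) with human mPGES-1 microsomes from transfected CHO-K1 cells. Buffer: potassium phosphate, reduced glutathione, pH 7.4; IC50 from activity relative to enzyme-free blank.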

A549 cells = test: Inhibition of PGE2 production in A549 cell (IL-1β stimulated); type: cell-based, human; settings: Homo sapiens, A549, 24 h, IL-1β 5 ng/well, PGE2 in culture medium
How it was run: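 A549 cells preincubated 60 min with compound in RPMI/3% FBS (final DMSO 0.10), then stimulated with IL-1β (5 ng/well) for 24 h at 37 °C. PGE2 measured by HTRF and PGF2α by EIA in medium; IC50 from inhibition relative to stimulated minus unstimulated production.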

SMILES: Cc1c(Cl)cccc1NC(=O)c1cc(NC(=O)c2ccccc2C(F)(F)F)cc2[nH]c(NCCCN(C)C)nc12 [Example 153, N-(3-Chloro-2-methylphenyl)-2-{[3-(dimethylamino)propyl]amino}-6-({[2-(trifluoromethyl)phenyl]carbonyl}amino)-1H-benzimidazole-4-carboxamide hydrochloride]
- pIC50 (human mPGES-1): 7.65
- pIC50 (A549 cells): 6.21

SMILES: COCc1nc2c(C(=O)Nc3ccc(C)cc3C)cc(NC(=O)c3ccccc3C(F)(F)F)cc2[nH]1 [Example 29, N-(2,4-Dimethylphenyl)-2-(methoxymethyl)-6-({[2-(trifluoromethyl)phenyl]carbonyl}amino)-1H-benzimidazole-4-carboxamide hydrochloride]
- pIC50 (human mPGES-1): 8.46
- pIC50 (A549 cells): 7.07

SMILES: Cc1c(Cl)cccc1NC(=O)c1cc(NC(=O)c2ccccc2C(F)(F)F)cc2[nH]c(NCC(C)(C)O)nc12 [Example 167, N-(3-Chloro-2-methylphenyl)-2-[(2-hydroxy-2-methylpropyl)amino]-6-({[2-(trifluoromethyl)phenyl]carbonyl}amino)-1H-benz imidazole-4-carboxamide hydrochloride]
- pIC50 (human mPGES-1): 9.00
- pIC50 (A549 cells): 6.66

SMILES: Cc1ccc(NC(=O)c2cc(NC(=O)c3cc(Cl)ccc3Cl)cc3[nH]c(N(C)C)nc23)cc1Cl [Example 207, N-(3-Chloro-4-methylphenyl)-6-{[(2,5-dichlorophenyl)carbonyl]amino}-2-(dimethylamino)-1H-benzimidazole-4-carboxamide hydrochloride]
- pIC50 (human mPGES-1): 8.44
- pIC50 (A549 cells): 8.21

SMILES: Cc1c(Cl)cccc1NC(=O)c1cc(NC(=O)c2cc(Cl)ccc2Cl)cc2[nH]c(C3CC3)nc12 [Example 208, N-(3-Chloro-2-methylphenyl)-2-cyclopropyl-6-{[(2,5-dichlorophenyl)carbonyl]amino}-1H-benzimidazole-4-carboxamide hydrochloride]
- pIC50 (human mPGES-1): 9.15
- pIC50 (A549 cells): 7.89

SMILES: Cc1c(Cl)cccc1NC(=O)c1cc(NC(=O)c2c(Cl)cccc2Cl)cc2[nH]c(N(C)C)nc12 [Example 183, N-(3-Chloro-2-methylphenyl)-6-{[(2,6-dichlorophenyl)carbonyl]amino}-2-(dimethylamino)-1H-benzimidazole-4-carboxamide hydrochloride]
- pIC50 (human mPGES-1): 8.72
- pIC50 (A549 cells): 8.21

SMILES: Cc1c(Cl)cccc1NC(=O)c1cc(NC(=O)c2cc(Cl)ccc2Cl)cc2[nH]c(N(C)C)nc12 [Example 185, N-(3-Chloro-2-methylphenyl)-6-{[(2,5-dichlorophenyl)carbonyl]amino}-2-(dimethylamino)-1H-benzimidazole-4-carboxamide hydrochloride]
- pIC50 (human mPGES-1): 8.35
- pIC50 (A549 cells): 8.25

SMILES: Cc1ccc(NC(=O)c2cc(NC(=O)c3c(F)cccc3Cl)cc3[nH]c(N(C)C)nc23)cc1Cl [Example 205, 6-{[(2-Chloro-6-fluorophenyl)carbonyl]amino}-N-(3-chloro-4-methylphenyl)-2-(dimethylamino)-1H-benzimidazole-4-carboxamide hydrochloride]
- pIC50 (human mPGES-1): 8.43
- pIC50 (A549 cells): 7.59

SMILES: CSc1nc2c(C(=O)Nc3cccc(Cl)c3C)cc(NC(=O)c3ccccc3C(F)(F)F)cc2[nH]1 [Example 179, N-(3-Chloro-2-methylphenyl)-2-(methylsulfanyl)-6-({[2-(trifluoromethyl)phenyl]carbonyl}amino)-1H-benzimidazole-4-carboxamide]
- pIC50 (human mPGES-1): 8.44
- pIC50 (A549 cells): 7.69

SMILES: Cc1c(Cl)cccc1NC(=O)c1cc(NC(=O)c2c(F)cccc2Cl)cc2[nH]c(NCCOC(C)(C)C)nc12 [Example 195, 2-[(2-tert-Butoxyethyl)amino]-6-{[(2-chloro-6-fluorophenyl)carbonyl]amino}-N-(3-chloro-2-methylphenyl)-1H-benzimidazole-4-carboxamide hydrochloride]
- pIC50 (human mPGES-1): 8.64
- pIC50 (A549 cells): 7.76
